From US20220168427A1 (Ranok Therapeutics (Hangzhou) Co. Ltd., priority 2019, published 2022)

What was measured:
HSP90α = HSP90α (Homo sapiens, UniProt P07900); test: HSP90α Binding Fluorescent Polarization (FP) Assay
Outline: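 Competitive FP assay in which compound displaces FITC-geldanamycin from recombinant HSP90α (28 μg/ml before addition) in BSA-containing buffer. Compounds in 3-fold series from 40 μM to 2.0 nM (dilution-plate concentrations), tested in duplicate. Readings after 30, 60 and 120 min at 25 °C; background-subtracted mP fitted to four-parameter log[inhibitor]-response curve.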

BRD4 (BD1+BD2) = molecular target: T1, BRD4 (BD1+BD2) (Homo sapiens, UniProt O60885); details: read-out: BRD4 Binding Potency
T1 construct: 1.8 μg/ml recombinant BRD4 (BD1+BD2 domains) protein

EGFR = test: HSP90 Client Protein Degradation Flow Cytometry Assay, EGFR in HEK-293 cells; type: cell-based, human
Procedure: MV4-11 cells were plated in a 24-well tissue culture plate at a density of 350,000 cells/450 μL/well and incubated in 37° C./5% CO2 for 1 hr. Cells were then treated with compounds at various concentrations and incubated in 37° C./5% CO2 for 24 hr. Cells were harvested, washed once, counted and 200 μL of 1% paraformaldehyde/PBS was added and incubated for 15 min at room temperature. 200 μL of 1×PBS/0.4% Triton X-100 was added and incubated for 15 min at 4° C. Cells were washed three times and resuspended in 50 μL of 1×PBS/0.2% Triton X-100. 2 μL/10^6 cells of anti-BRD4 antibody (ABCAM, #128874) was added and mixed by pipetting up and down. Cells were incubated for 30 min at room temperature in the dark, washed three times and resuspended in 50 μL of 1×PBS/0.2% Triton X-100. Goat anti-rabbit IgG H&L antibody (1:2000 dilution) was added and mixed by pipetting up and down and incubated for 30 min at room temperature in the dark. Finally, cells were washed three times and resuspended in 200 μL of PBS for flow cytometric analysis.
Similar flow cytometry experiments for ERBB2 in BT-474 human breast carcinoma cells (ATCC, #HTB-20) and IGF1R, EGFR and RAF1 in HEK-293 human embryonic kidney (ATCC, #CRL-1573) were performed using anti-ERBB2 (R&D, #FAB1129P), anti-IGF1R (Cell Signaling Technology, #9750), anti-EGFR (Cell Signaling Technology, #139690) and anti-RAF1 (ABCAM, #ab181115) antibodies.

MV4-11 cells = test: MV4-11 Cell Cytotoxicity Assay; type: cell-based, human; details: 72 hr, CCK-8
Description: % Inhibition=100−(D−B)/(S−B)*100%.
S: The absorbance of the maximum (cells with DMSO)
B: The absorbance of the minimum (medium with DMSO)

SU-DHL-4 xenograft = test: SU-DHL-4 DLBCL tumor xenograft study in mice
Procedure: Tumor Xenograft Studies in Mice
5×10^6 MV-4-11 or 1×10^7 SU-DHL-4 cells were collected and re-suspended in 0.1 mL of serum-free media with Matrigel (1:1 v/v) per mouse for subcutaneous inoculation in isoflurane anesthetized male BALB/c nude or C.B-17 scid mice, respectively (treated in accordance with AAALAC animal welfare guidelines). When the average tumor volumes reached 100-200 mm^3, tumor volume outliers were removed and the remaining animals randomly divided into groups of 6-8 with similar average tumor volumes in each group. […] Animals were intravenously dosed at 25 mg/kg, 50 mg/kg or 100 mg/kg 1×/week for 3 or 4 weeks. The appearance and behavior of each mouse was observed and recorded daily. Body weights and tumor volumes were measured and recorded every 2-4 days and the results were expressed as group means±SEM. Pairwise statistical comparisons between groups were performed by one-way ANOVA, and p<0.05 was considered statistically significant.

[1] = Pharmacokinetics and Tissue Distribution in the MV4-11 xenograft model; type: in vivo, mice; details: female, CB-17 SCID, mouse, 5 mg/kg single intravenous dose
Procedure: Pharmacokinetics and Tissue Distribution
15 female CB-17 SCID mice (treated in accordance with AAALAC animal welfare guidelines) were weighed and administered 5 mg/kg of compound 074 by a single intravenous injection. 0.10 mL of blood was collected from each mouse by submandibular vein and sodium heparin was added as an anticoagulant. Samples were collected before compound administration, and at 1 hr, 6 hr 24 hr and 48 hr time points after administration, with 3 mice sampled per time point. After collection, samples were placed on ice and the animals sacrificed to collect tumor and normal tissues. The method development and analysis of all samples were performed by the analytical laboratory at Shanghai Medicilon Inc. Intra-day accuracy evaluation of samples for quality control was carried out during sample analysis and a quality control accuracy of more than 66.7% of samples was required between to be 80-120%. Pharmacokinetic parameters were calculated using Phoenix WinNonlin7.0 software.

[2] = 100 mg/kg intravenously 1×/week, after 4 weeks of dosing

Compound: Cc1sc2c(c1C)C(c1ccc(Cl)cc1)=N[C@@H](CC(=O)N1CCC(CN3CCN(Cc4ccc(-n5c(O)nnc5-c5cc(C(C)C)c(O)cc5O)cc4)CC3)CC1)c1nnc(C)n1-2.Cl [Compound 74, (S)-2-(4-(4-chlorophenyl)-2,3,9-trimethyl-6H-thieno[3,2-f][1,2,4]triazolo[4,3-a][1,4]diazepin-6-yl)-1-(4-((4-(4-(3-(2,4-dihydroxy-5-isopropylphenyl)-5-hydroxy-4H-1,2,4-triazol-4-yl)benzyl)piperazin-1-yl)methyl)piperidin-1-yl)ethan-1-one hydrochloride]
- potency in binding to HSP90, in words (HSP90α): moderate potency
- IC50 (HSP90α; competition with FITC-geldanamycin, read-out: HSP90 Binding Potency): 100 to 1000 nM
- IC50 (BRD4 (BD1+BD2)): 100 to 1000 nM
- IC50 (EGFR): 405 nM
- IC50 (MV4-11 cells): < 100 nM
- tumor growth inhibition (SU-DHL-4 xenograft; [2]): significant tumor growth inhibition
- tumor vs control (T/C) value (SU-DHL-4 xenograft; [2]): 41%
- animal deaths and body weights (SU-DHL-4 xenograft; any dose level): No animal deaths or significant effects on body weights were observed
- Cmax ([1]; heart): 1640 ng/g
- Tmax ([1]; heart): 1 h
- half-life ([1]; heart): 3.7 h
- Cmax ([1]; liver): 5040 ng/g
- Tmax ([1]; liver): 1 h
- half-life ([1]; liver): 3.37 h
- Cmax ([1]; lung): 2030 ng/g
- Tmax ([1]; lung): 1 h
- half-life ([1]; lung): 6.94 h
- AUC(0-inf) ([1]; plasma): 3020 ng·h/mL
- Cmax ([1]; plasma): 498 ng/mL
- Tmax ([1]; plasma): 1 h
- half-life ([1]; plasma): 3.92 h
- Cmax ([1]; tumor): 462 ng/g
- Tmax ([1]; tumor): 1 h
- half-life ([1]; tumor): 32.1 h
